How the values were obtained:
human serum albumin [1] = target: T1, human serum albumin (Homo sapiens, UniProt P02768); assay: Literature HSA binding of the reference substances used to calibrate the HSA column; details: logarithmic K of human serum albumin binding, from the literature HSA%
Procedure: The mobile phase was freshly prepared for each experiment and only used for one day. The column was kept at room temperature and each run was stopped after detection of the signal to reduce the acquisition time. All substances were dissolved in a 0.5mg/ml concentration in 50% 2-Propanol and 50% 50mM pH 6.9 ammonium acetate buffer. […] All nine reference substances were injected consecutively to establish a non-linear regression with OriginPro 2016G. […] Table 1: Reference substances used for the calibration of the HSA-column.

human serum albumin [2] = target: T1, human serum albumin; details: literature value of human serum albumin binding (Valko et al. or Yamazaki et al.); cited from earlier work

T1 sequence (P02768 25-609): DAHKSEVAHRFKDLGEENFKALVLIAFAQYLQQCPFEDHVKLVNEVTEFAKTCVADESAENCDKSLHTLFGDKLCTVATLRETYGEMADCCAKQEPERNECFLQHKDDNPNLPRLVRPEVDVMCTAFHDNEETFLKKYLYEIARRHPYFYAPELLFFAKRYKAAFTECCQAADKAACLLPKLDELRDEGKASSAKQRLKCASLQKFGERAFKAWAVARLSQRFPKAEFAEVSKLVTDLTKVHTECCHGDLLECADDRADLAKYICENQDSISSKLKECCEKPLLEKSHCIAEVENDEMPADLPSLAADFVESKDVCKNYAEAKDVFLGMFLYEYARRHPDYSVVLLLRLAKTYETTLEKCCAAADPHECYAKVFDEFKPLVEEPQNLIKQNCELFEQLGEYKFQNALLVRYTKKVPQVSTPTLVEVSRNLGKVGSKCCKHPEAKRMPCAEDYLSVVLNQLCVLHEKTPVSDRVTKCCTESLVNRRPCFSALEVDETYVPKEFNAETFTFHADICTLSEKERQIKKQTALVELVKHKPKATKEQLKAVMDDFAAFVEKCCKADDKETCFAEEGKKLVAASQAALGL

SMILES	Log K HSA (human serum albumin [1])	Lit. HSA% (human serum albumin [2])
COc1ccc(Cl)cc1C(=O)NCCc1ccc(S(=O)(=O)NC(=O)NC2CCCCC2)cc1 [Glibenclamide]	1.69	99.00%
Oc1ccccc1 [Phenol]	-0.59	20.69%

From patent EP3494999A1, “PSMA LIGANDS FOR IMAGING AND ENDORADIOTHERAPY” (Technische Universität München, priority 2017, dated 2019)
